Laboratory results: patent US20090156577A1, “7-AMINO ALKYLIDENYL-HETEROCYCLIC QUINOLONES AND NAPHTHYRIDONES” (priority 2004, published 2009)
Values after ≈ are worked out from the molar mass of the structure shown. Like-named read-outs stand apart in the source and are kept apart here.

Test system: pathogenic bacteria
Experiment: MIC by microdilution broth method (NCCLS M7-A4), in vitro antibacterial activity
Type: cell-based
Outline: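 MIC read after 35 °C incubation for 16–20 h relative to drug-free growth wells. Cation-adjusted Mueller-Hinton broth with two-fold compound dilutions, organisms at roughly 5×10^4 CFU/well final. Method follows NCCLS document M7-A4.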

[1] = Staphylococcus aureus, Organism A: Staphylococcus aureus OC4172, read-out: MIC
[2] = Streptococcus pneumoniae, ATCC49619, Organism E: Streptococcus pneumoniae ATCC 49619, read-out: MIC
[3] = Streptococcus pneumoniae, Organism C: fluoroquinolone-resistant clinical isolate of Streptococcus pneumoniae (QRDR amino acid substitutions)
[4] = Streptococcus pneumoniae, Organism D: fluoroquinolone-resistant clinical isolate of Streptococcus pneumoniae (QRDR amino acid substitutions)
[5] = Streptococcus pneumoniae, Organism B: fluoroquinolone-resistant clinical isolate of Streptococcus pneumoniae (QRDR amino acid substitutions)

SMILES | MIC [1] [µg/mL] | MIC [2] [µg/mL] | MIC [3] [µg/mL] | MIC [4] [µg/mL] | MIC [5] [µg/mL]
Cc1c(N2CCC/C(=C(\F)CN)C2)c(F)cc2c(=O)c(C(=O)O)cn(C3CC3)c12 [Compound 459, 7-[(E)-3-(2-Amino-1-fluoro-ethylidene)-piperidin-1-yl]-1-cyclopropyl-6-fluoro-8-methyl-4-oxo-1,4-dihydro-quinoline-3-carboxylic Acid] | ≤ 0.015 | 0.06 (≈ 0.149 µM) | 0.25 (≈ 0.62 µM) | 0.12 (≈ 0.297 µM) | –
COc1c(N2CCC(=C(F)CCN)CC2)c(F)cc2c(=O)c(C(=O)O)cn(C3CC3)c12 [Compound 467, 7-{4-[3-Amino-1-fluoro-propylidene]-piperidin-1-yl}-1-cyclopropyl-6-fluoro-8-methoxy-4-oxo-1,4-dihydro-quinoline-3-carboxylic Acid] | 0.12 (≈ 0.277 µM) | 0.5 (≈ 1.15 µM) | 4 (≈ 9.23 µM) | 1 (≈ 2.31 µM) | 0.5 (≈ 1.15 µM)
C[C@H]1COc2c(N3CCC/C(=C(/F)CN)CC3)c(F)cc3c(=O)c(C(=O)O)cn1c23 [Compound 491, (3S)-9-[(Z)-4-(2-Amino-1-fluoro-ethylidene)-azepan-1-yl]-8-fluoro-3-methyl-6-oxo-2,3-dihydro-6H-1-oxa-3a-aza-phenalene-5-carboxylic Acid] | 0.12 (≈ 0.286 µM) | 1 (≈ 2.38 µM) | 8 (≈ 19.1 µM) | 16 (≈ 38.1 µM) | –
C[C@H]1COc2c(N3CCC/C(=C(\F)CN)CC3)c(F)cc3c(=O)c(C(=O)O)cn1c23 [Compound 492, (3S)-9-[(E)-4-(2-Amino-1-fluoro-ethylidene)-azepan-1-yl]-8-fluoro-3-methyl-6-oxo-2,3-dihydro-6H-1-oxa-3a-aza-phenalene-5-carboxylic Acid] | 0.06 (≈ 0.143 µM) | 0.25 (≈ 0.596 µM) | 4 (≈ 9.54 µM) | 8 (≈ 19.1 µM) | –
C[C@H]1COc2c(N3CCOC/C(=C(\F)CN)C3)c(F)cc3c(=O)c(C(=O)O)cn1c23 [Compound 493, 9-[(Z)-6-(2-Amino-1-fluoro-ethylidene)-[1,4]oxazepan-4-yl]-8-fluoro-(3S)-3-methyl-6-oxo-2,3-dihydro-6H-1-oxa-3a-aza-phenalene-5-carboxylic Acid] | 0.06 (≈ 0.142 µM) | 0.5 (≈ 1.19 µM) | > 16 | 1 (≈ 2.37 µM) | –
C[C@H]1COc2c(N3CCOC/C(=C(/F)CN)C3)c(F)cc3c(=O)c(C(=O)O)cn1c23 [Compound 494, 9-[(E)-6-(2-Amino-1-fluoro-ethylidene)-[1,4]oxazepan-4-yl]-8-fluoro-(3S)-3-methyl-6-oxo-2,3-dihydro-6H-1-oxa-3a-aza-phenalene-5-carboxylic Acid] | 1 (≈ 2.37 µM) | 8 (≈ 19 µM) | > 16 | > 16 | –
NC/C(F)=C1\CCCN(c2nc3c(cc2F)c(=O)c(C(=O)O)cn3C2CC2)CC1 [Compound 495, (Z)-7-[4-(2-Amino-1-fluoro-ethylidene)-azepan-1-yl]-1-cyclopropyl-6-fluoro-4-oxo-1,4-dihydro-[1,8]naphthyridine-3-carboxylic acid] | 0.25 (≈ 0.618 µM) | 1 (≈ 2.47 µM) | 2 (≈ 4.95 µM) | – | –
NC/C(F)=C1/CCCN(c2nc3c(cc2F)c(=O)c(C(=O)O)cn3C2CC2)CC1 [Compound 496, (E)-7-[4-(2-Amino-1-fluoro-ethylidene)-azepan-1-yl]-1-cyclopropyl-6-fluoro-4-oxo-1,4-dihydro-[1,8]naphthyridine-3-carboxylic acid] | 0.25 (≈ 0.618 µM) | 1 (≈ 2.47 µM) | 0.25 (≈ 0.618 µM) | 16 (≈ 39.6 µM) | –
NC/C(F)=C1/COCCN(c2nc3c(cc2F)c(=O)c(C(=O)O)cn3C2CC2)C1 [Compound 497, (Z)-7-[6-(2-Amino-1-fluoro-ethylidene)-[1,4]oxazepan-4-yl]-1-cyclopropyl-6-fluoro-4-oxo-1,4-dihydro-[1,8]naphthyridine-3-carboxylic acid] | 1 (≈ 2.46 µM) | 4 (≈ 9.84 µM) | > 16 | > 16 | > 1
NC/C(F)=C1\COCCN(c2nc3c(cc2F)c(=O)c(C(=O)O)cn3C2CC2)C1 [Compound 498, (E)-7-[6-(2-Amino-1-fluoro-ethylidene)-[1,4]oxazepan-4-yl]-1-cyclopropyl-6-fluoro-4-oxo-1,4-dihydro-[1,8]naphthyridine-3-carboxylic acid] | 1 (≈ 2.46 µM) | 16 (≈ 39.4 µM) | > 16 | > 16 | 4 (≈ 9.84 µM)
C[C@H]1CN(c2nc3c(cc2F)c(=O)c(C(=O)O)cn3C2CC2)C/C(=C(/F)CN)CO1 [Compound 499, (Z)-7-[6-(2-Amino-1-fluoro-ethylidene)-(2S)-2-methyl-[1,4]oxazepan-4-yl]-1-cyclopropyl-6-fluoro-4-oxo-1,4-dihydro-[1,8]naphthyridine-3-carboxylic acid] | 8 (≈ 19 µM) | > 16 | > 16 | > 16 | > 16
C[C@@H]1CN(c2nc3c(cc2F)c(=O)c(C(=O)O)cn3C2CC2)C/C(=C(/F)CN)CO1 [Compound 500, (Z)-7-[6-(2-Amino-1-fluoro-ethylidene)-(2R)-2-methyl-[1,4]oxazepan-4-yl]-1-cyclopropyl-6-fluoro-4-oxo-1,4-dihydro-[1,8]naphthyridine-3-carboxylic acid] | 2 (≈ 4.76 µM) | 16 (≈ 38.1 µM) | > 16 | > 16 | > 16
NC/C(F)=C1\CCCN(c2cc3c(cc2F)c(=O)c(C(=O)O)cn3C2CC2)CC1 [Compound 501, (Z)-7-[4-(2-Amino-1-fluoro-ethylidene)-azepan-1-yl]-1-cyclopropyl-6-fluoro-4-oxo-1,4-dihydro-quinoline-3-carboxylic acid] | 0.25 (≈ 0.62 µM) | 2 (≈ 4.96 µM) | 8 (≈ 19.8 µM) | 16 (≈ 39.7 µM) | –
NC/C(F)=C1/CCCN(c2cc3c(cc2F)c(=O)c(C(=O)O)cn3C2CC2)CC1 [Compound 502, (E)-7-[4-(2-Amino-1-fluoro-ethylidene)-azepan-1-yl]-1-cyclopropyl-6-fluoro-4-oxo-1,4-dihydro-quinoline-3-carboxylic acid] | 0.5 (≈ 1.24 µM) | 4 (≈ 9.92 µM) | 16 (≈ 39.7 µM) | > 16 | 16 (≈ 39.7 µM)
NC/C(F)=C1/COCCN(c2cc3c(cc2F)c(=O)c(C(=O)O)cn3C2CC2)C1 [Compound 503, (Z)-7-[6-(2-Amino-1-fluoro-ethylidene)-[1,4]oxazepan-4-yl]-1-cyclopropyl-6-fluoro-4-oxo-1,4-dihydro-quinoline-3-carboxylic acid] | 4 (≈ 9.87 µM) | 16 (≈ 39.5 µM) | > 16 | > 16 | –
NC/C(F)=C1\COCCN(c2cc3c(cc2F)c(=O)c(C(=O)O)cn3C2CC2)C1 [Compound 504, (E)-7-[6-(2-Amino-1-fluoro-ethylidene)-[1,4]oxazepan-4-yl]-1-cyclopropyl-6-fluoro-4-oxo-1,4-dihydro-quinoline-3-carboxylic acid] | 2 (≈ 4.93 µM) | 16 (≈ 39.5 µM) | 8 (≈ 19.7 µM) | 4 (≈ 9.87 µM) | –
COc1c(N2CCC/C(=C(/F)CN)CC2)c(F)cc2c(=O)c(C(=O)O)cn(C3CC3)c12 [Compound 505, (Z)-7-[4-(2-Amino-1-fluoro-ethylidene)-azepan-1-yl]-1-cyclopropyl-6-fluoro-8-methoxy-4-oxo-1,4-dihydro-quinoline-3-carboxylic acid] | 0.12 (≈ 0.277 µM) | 0.25 (≈ 0.577 µM) | 4 (≈ 9.23 µM) | 1 (≈ 2.31 µM) | –
COc1c(N2CCC/C(=C(\F)CN)CC2)c(F)cc2c(=O)c(C(=O)O)cn(C3CC3)c12 [Compound 506, (E)-7-[4-(2-Amino-1-fluoro-ethylidene)-azepan-1-yl]-1-cyclopropyl-6-fluoro-8-methoxy-4-oxo-1,4-dihydro-quinoline-3-carboxylic acid] | ≤ 0.015 | 0.25 (≈ 0.577 µM) | 2 (≈ 4.61 µM) | – | –
COc1c(N2CCOC/C(=C(\F)CN)C2)c(F)cc2c(=O)c(C(=O)O)cn(C3CC3)c12 [Compound 507, (Z)-7-[6-(2-Amino-1-fluoro-ethylidene)-[1,4]oxazepan-4-yl]-1-cyclopropyl-6-fluoro-8-methoxy-4-oxo-1,4-dihydro-quinoline-3-carboxylic acid] | 0.06 (≈ 0.138 µM) | 0.25 (≈ 0.574 µM) | 2 (≈ 4.59 µM) | 2 (≈ 4.59 µM) | 0.12 (≈ 0.276 µM)
COc1c(N2CCOC/C(=C(/F)CN)C2)c(F)cc2c(=O)c(C(=O)O)cn(C3CC3)c12 [Compound 508, (E)-7-[6-(2-Amino-1-fluoro-ethylidene)-[1,4]oxazepan-4-yl]-1-cyclopropyl-6-fluoro-8-methoxy-4-oxo-1,4-dihydro-quinoline-3-carboxylic acid] | 0.12 (≈ 0.276 µM) | 1 (≈ 2.3 µM) | > 16 | 8 (≈ 18.4 µM) | ≤ 4
